System: MV-4-11 cells
Assay: Gene expression microarray analysis (Affymetrix PrimeView) and GSEA
Format: cell-based, human
Design: RFU PODN (11730768_x_at) / Fold change /veh PODN (11730768_x_at) / RFU LINC00158 (11744669_a_at) / Fold change /veh LINC00158 (11744669_a_at) / RFU DUSP10 (11751237_a_at) / Fold change /veh DUSP10 (11751237_a_at) / RFU ID3 (11757404_x_at) / Fold change /veh ID3 (11757404_x_at) / RFU PLEKHG5 (11737974_s_at) / Fold change /veh PLEKHG5 (11737974_s_at) / RFU LRRC4B (11730491_at) / Fold change /veh LRRC4B (11730491_at) / RFU GIMAP4 (11747438_a_at) / Fold change /veh GIMAP4 (11747438_a_at) / RFU KRT8 (11758183_x_at) / Fold change /veh KRT8 (11758183_x_at) / RFU CNN1 (11734310_a_at) / Fold change /veh CNN1 (11734310_a_at) / RFU VPS37D (11726825_at) / Fold change /veh VPS37D (11726825_at) / RFU C10orf10 (11716522_x_at) / Fold change /veh C10orf10 (11716522_x_at) / RFU KIR2DL2 /// KIR2DL4 /// KIR2DL5A /// KIR2DL5B /// KIR2DS1 /// KIR2DS2 /// KIR2DS3 /// KIR2DS4 /// KIR3DL3 /// KIR3DL3 /// KIR3DS1 (11738374_at) / Fold change /veh KIR2DL2 /// KIR2DL4 /// KIR2DL5A /// KIR2DL5B /// KIR2DS1 /// KIR2DS2 /// KIR2DS3 /// KIR2DS4 /// KIR3DL3 /// KIR3DL3 /// KIR3DS1 (11738374_at) / RFU C1QL1 (11718748_at) / Fold change /veh C1QL1 (11718748_at) / RFU TMPRSS4 (11747572_a_at) / Fold change /veh TMPRSS4 (11747572_a_at) / RFU HAMP (11756126_x_at) / Fold change /veh HAMP (11756126_x_at) / RFU RNFT2 (11725882_a_at) / Fold change /veh RNFT2 (11725882_a_at) / RFU NR4A2 (11747474_a_at) / Fold change /veh NR4A2 (11747474_a_at) / RFU ABCC12 (11746883_a_at) / Fold change /veh ABCC12 (11746883_a_at) / RFU TMEM136 (11760407_x_at) / Fold change /veh TMEM136 (11760407_x_at) / RFU CLDN22 /// WWC2 (11732394_at) / Fold change /veh CLDN22 /// WWC2 (11732394_at) / RFU HLA-DPB1 (11760878_x_at) / Fold change /veh HLA-DPB1 (11760878_x_at) / RFU SPINT1 (11716480_a_at) / Fold change /veh SPINT1 (11716480_a_at) / RFU GAP43 (11754022_s_at) / Fold change /veh GAP43 (11754022_s_at) / RFU A4GNT (11735810_at) / Fold change /veh A4GNT (11735810_at) / RFU PRB3 (11715151_x_at) / Fold change /veh PRB3 (11715151_x_at) / RFU TUBB4B (11761932_at) / Fold change /veh TUBB4B (11761932_at) / RFU CAPN14 (11732068_a_at) / Fold change /veh CAPN14 (11732068_a_at) / RFU TMCC2 (11721928_a_at) / Fold change /veh TMCC2 (11721928_a_at) / RFU IRGQ (11745062_a_at) / Fold change /veh IRGQ (11745062_a_at) / RFU FAM174B (11720279_a_at) / Fold change /veh FAM174B (11720279_a_at) / RFU TMPRSS4 (11748680_a_at) / Fold change /veh TMPRSS4 (11748680_a_at) / RFU FAM212B (11763350_a_at) / Fold change /veh FAM212B (11763350_a_at) / RFU PLEKHG5 (11743358_a_at) / Fold change /veh PLEKHG5 (11743358_a_at) / RFU ZSCAN30 (11745921_a_at) / Fold change /veh ZSCAN30 (11745921_a_at) / RFU CMKLR1 (11741424_a_at) / Fold change /veh CMKLR1 (11741424_a_at) / RFU LOC101060620 /// MAPK8IP1 (11723275_at) / Fold change /veh LOC101060620 /// MAPK8IP1 (11723275_at) / RFU SPTSSB (11747773_x_at) / Fold change /veh SPTSSB (11747773_x_at) / RFU PRSS12 (11739890_at) / Fold change /veh PRSS12 (11739890_at) / RFU BIN1 (11741810_x_at) / Fold change /veh BIN1 (11741810_x_at) / RFU WNT11 (11732464_a_at) / Fold change /veh WNT11 (11732464_a_at) / RFU C10orf10 (11716521_a_at) / Fold change /veh C10orf10 (11716521_a_at) / RFU C5orf56 (11738089_at) / Fold change /veh C5orf56 (11738089_at) / RFU CYB561 (11721691_x_at) / Fold change /veh CYB561 (11721691_x_at) / RFU ANKRD19P (11752326_a_at) / Fold change /veh ANKRD19P (11752326_a_at) / RFU OR2T12 /// OR2T33 /// OR2T8 (11738714_s_at) / Fold change /veh OR2T12 /// OR2T33 /// OR2T8 (11738714_s_at) / RFU VCAN (11748164_a_at) / Fold change /veh VCAN (11748164_a_at) / RFU JSRP1 (11732532_at) / Fold change /veh JSRP1 (11732532_at) / RFU KRTAP10-11 (11738290_x_at) / Fold change /veh KRTAP10-11 (11738290_x_at) / RFU MYO3A (11730013_a_at) / Fold change /veh MYO3A (11730013_a_at) / RFU EBF3 (11725865_a_at) / Fold change /veh EBF3 (11725865_a_at) / RFU CAMK2N1 (11719241_x_at) / Fold change /veh CAMK2N1 (11719241_x_at) / RFU C5orf56 (11738088_a_at) / Fold change /veh C5orf56 (11738088_a_at) / RFU OLFML3 (11715873_a_at) / Fold change /veh OLFML3 (11715873_a_at) / RFU LOC100653217 /// NTM (11731650_a_at) / Fold change /veh LOC100653217 /// NTM (11731650_a_at) / RFU MAPK11 (11762145_a_at) / Fold change /veh MAPK11 (11762145_a_at) / RFU FIZ1 (11724087_x_at) / Fold change /veh FIZ1 (11724087_x_at) / RFU OASL (11726364_x_at) / Fold change /veh OASL (11726364_x_at) / RFU SOX15 (11748057_x_at) / Fold change /veh SOX15 (11748057_x_at) / RFU CD79A (11719716_a_at) / Fold change /veh CD79A (11719716_a_at) / RFU HIST1H1D (11736915_at) / Fold change /veh HIST1H1D (11736915_at) / RFU CASKIN2 (11723855_a_at) / Fold change /veh CASKIN2 (11723855_a_at) / RFU LOC730098 (11760151_x_at) / Fold change /veh LOC730098 (11760151_x_at) / RFU OR4N2 (11742367_at) / Fold change /veh OR4N2 (11742367_at) / RFU PRRT2 (11749266_a_at) / Fold change /veh PRRT2 (11749266_a_at) / RFU SNX32 (11753110_a_at) / Fold change /veh SNX32 (11753110_a_at) / RFU CDHR5 (11726645_a_at) / Fold change /veh CDHR5 (11726645_a_at) / RFU RCAN1 (11760418_a_at) / Fold change /veh RCAN1 (11760418_a_at) / RFU FAM167A (11723789_a_at) / Fold change /veh FAM167A (11723789_a_at) / RFU FAM26E (11764081_at) / Fold change /veh FAM26E (11764081_at) / RFU ISYNA1 (11749810_s_at) / Fold change /veh ISYNA1 (11749810_s_at) / RFU ACY1 (11761880_at) / Fold change /veh ACY1 (11761880_at) / RFU 11764098_at / Fold change /veh 11764098_at / RFU SAMD14 (11745864_x_at) / Fold change /veh SAMD14 (11745864_x_at) / RFU NPB (11741838_a_at) / Fold change /veh NPB (11741838_a_at) / RFU TMPRSS6 (11731388_a_at) / Fold change /veh TMPRSS6 (11731388_a_at) / RFU KRTAP10-2 (11738614_at) / Fold change /veh KRTAP10-2 (11738614_at) / RFU ARHGAP8 /// PRR5-ARHGAP8 (11727945_x_at) / Fold change /veh ARHGAP8 /// PRR5-ARHGAP8 (11727945_x_at) / RFU KRTAP5-7 /// NADSYN1 (11734609_at) / Fold change /veh KRTAP5-7 /// NADSYN1 (11734609_at) / RFU RASL12 (11751679_a_at) / Fold change /veh RASL12 (11751679_a_at) / RFU CDKN2B (11736163_a_at) / Fold change /veh CDKN2B (11736163_a_at) / RFU PRF1 (11729649_at) / Fold change /veh PRF1 (11729649_at) / RFU, ZNF638 /// ZNF638-IT1 / Fold change vs veh, ZNF638 /// ZNF638-IT1 / RFU, PANK3 / Fold change vs veh, PANK3 / RFU, SH3YL1 / Fold change vs veh, SH3YL1 / RFU, ZEB2 / Fold change vs veh, ZEB2 / RFU, NRIP1 / Fold change vs veh, NRIP1 / RFU, PTTG1IP / Fold change vs veh, PTTG1IP / RFU, CAPN2 / Fold change vs veh, CAPN2 / RFU, MED14 / Fold change vs veh, MED14 / RFU, SNORA58 / Fold change vs veh, SNORA58 / RFU, C1orf63 / Fold change vs veh, C1orf63 / RFU, LRRFIP1 / Fold change vs veh, LRRFIP1 / RFU, NDUFAF7 / Fold change vs veh, NDUFAF7 / RFU, SLC12A2 / Fold change vs veh, SLC12A2 / RFU, IBTK / Fold change vs veh, IBTK / RFU, ESF1 / Fold change vs veh, ESF1 / Fold change vs veh, TMEM50B / RFU, TAOK1 / Fold change vs veh, TAOK1 / RFU, ACBD3 / Fold change vs veh, ACBD3 / RFU, TMA16 / Fold change vs veh, TMA16 / RFU, RWDD3 / Fold change vs veh, RWDD3 / RFU, BCAT1 / Fold change vs veh, BCAT1 / RFU, EDEM3 / Fold change vs veh, EDEM3 / RFU, TMEM33 / Fold change vs veh, TMEM33 / RFU, WDR75 / Fold change vs veh, WDR75 / RFU, AHCTF1 / Fold change vs veh, AHCTF1 / RFU, TFRC / Fold change vs veh, TFRC / RFU, ZDHHC17 / Fold change vs veh, ZDHHC17 / RFU, NOM1 / Fold change vs veh, NOM1 / RFU, ARL8B / Fold change vs veh, ARL8B / RFU, ZBTB11 / Fold change vs veh, ZBTB11 / RFU, TAMM41 / Fold change vs veh, TAMM41 / RFU, KIAA1704 /// LOC100996395 / Fold change vs veh, KIAA1704 /// LOC100996395 / RFU, ING1 / Fold change vs veh, ING1 / RFU, TRMT61B / Fold change vs veh, TRMT61B / RFU, FUBP3 / Fold change vs veh, FUBP3 / RFU, TP53 / Fold change vs veh, TP53 / RFU, TNKS2 / Fold change vs veh, TNKS2 / RFU, ZFP14 / Fold change vs veh, ZFP14 / RFU, ACTR2 / Fold change vs veh, ACTR2 / RFU, PPP3R1 / Fold change vs veh, PPP3R1 / RFU, PIK3R1 / Fold change vs veh, PIK3R1 / RFU, HNRNPA1 / Fold change vs veh, HNRNPA1 / RFU, RNF170 / Fold change vs veh, RNF170 / RFU, ZNF28 / Fold change vs veh, ZNF28 / RFU, RNGTT / Fold change vs veh, RNGTT / RFU, OGT / Fold change vs veh, OGT / RFU, BRD1 / Fold change vs veh, BRD1 / RFU, MARS / Fold change vs veh, MARS / RFU, ZNF655 / Fold change vs veh, ZNF655 / RFU, FAHD1 / Fold change vs veh, FAHD1 / RFU, BDP1 / Fold change vs veh, BDP1 / RFU, LRRCC1 / Fold change vs veh, LRRCC1 / RFU, ARID1A / Fold change vs veh, ARID1A / RFU, ZNF146 / Fold change vs veh, ZNF146 / RFU, ZNF330 / Fold change vs veh, ZNF330 / RFU, GPN3 / Fold change vs veh, GPN3 / RFU, C9orf123 / Fold change vs veh, C9orf123 / RFU, N4BP2L2 / Fold change vs veh, N4BP2L2 / RFU, ARFIP1 / Fold change vs veh, ARFIP1 / RFU, FAM179B / Fold change vs veh, FAM179B / RFU, BCL10 / Fold change vs veh, BCL10 / RFU, UHRF1BP1L / Fold change vs veh, UHRF1BP1L / RFU, BET1 / Fold change vs veh, BET1 / RFU, CNOT2 / Fold change vs veh, CNOT2 / RFU, ZNF268 / Fold change vs veh, ZNF268 / Fold change vs veh, ZNF507 / RFU, DGCR2 / Fold change vs veh, DGCR2 / RFU, WDSUB1 / Fold change vs veh, WDSUB1 / Fold change vs veh, HSP90B1 /// MIR3652 / RFU, ADSS / Fold change vs veh, ADSS / RFU, GK / Fold change vs veh, GK / RFU, ZNF148 / Fold change vs veh, ZNF148 / RFU, TAF9 / Fold change vs veh, TAF9 / RFU, SLC1A5 / Fold change vs veh, SLC1A5 / RFU, SLMO2 / Fold change vs veh, SLMO2 / RFU, ABCC4 / Fold change vs veh, ABCC4 / RFU, LOC101060439 /// RAP1B / Fold change vs veh, LOC101060439 /// RAP1B / RFU, RFX7 / Fold change vs veh, RFX7 / RFU, GTPBP10 / Fold change vs veh, GTPBP10 / RFU, CNEP1R1 / Fold change vs veh, CNEP1R1 / RFU, BIVM-ERCC5 /// ERCC5 / Fold change vs veh, BIVM-ERCC5 /// ERCC5 / RFU, ILF3 / Fold change vs veh, ILF3 / RFU 11762660_at / Fold change /veh 11762660_at / RFU VCAN (11757783_s_at) / Fold change /veh VCAN (11757783_s_at) / RFU DDX43 (11728927_at) / Fold change /veh DDX43 (11728927_at) / RFU KRT8 (11758188_x_at) / Fold change /veh KRT8 (11758188_x_at) / RFU NKD1 (11759106_at) / Fold change /veh NKD1 (11759106_at) / RFU SRD5A1 (11742802_a_at) / Fold change /veh SRD5A1 (11742802_a_at) / RFU TPSAB1 /// TPSB2 (11721975_s_at) / Fold change /veh TPSAB1 /// TPSB2 (11721975_s_at) / RFU GSTM3 (11746129_a_at) / Fold change /veh GSTM3 (11746129_a_at) / RFU IL23R (11737362_x_at) / Fold change /veh IL23R (11737362_x_at) / RFU TMEM51 (11727254_a_at) / Fold change /veh TMEM51 (11727254_a_at) / RFU PIWIL2 (11732686_x_at) / Fold change /veh PIWIL2 (11732686_x_at) / RFU ORM1 (11744905_x_at) / Fold change /veh ORM1 (11744905_x_at) / RFU CCDC152 (11743942_at) / Fold change /veh CCDC152 (11743942_at) / RFU ECM1 (11717891_a_at) / Fold change /veh ECM1 (11717891_a_at) / RFU IL23R (11748794_a_at) / Fold change /veh IL23R (11748794_a_at) / RFU TNFAIP8L3 (11732012_x_at) / Fold change /veh TNFAIP8L3 (11732012_x_at) / RFU MBOAT4 (11741988_at) / Fold change /veh MBOAT4 (11741988_at) / RFU 11764193_at / Fold change /veh 11764193_at / RFU TMEM53 (11763286_at) / Fold change /veh TMEM53 (11763286_at) / RFU MAGEB2 (11727129_at) / Fold change /veh MAGEB2 (11727129_at) / RFU TMEM200A (11744735_a_at) / Fold change /veh TMEM200A (11744735_a_at) / RFU CCDC152 (11751479_a_at) / Fold change /veh CCDC152 (11751479_a_at) / RFU FAM211A (11726209_a_at) / Fold change /veh FAM211A (11726209_a_at) / RFU RGS16 (11746705_a_at) / Fold change /veh RGS16 (11746705_a_at) / RFU VCAN (11755009_s_at) / Fold change /veh VCAN (11755009_s_at) / RFU RHOB (11743442_s_at) / Fold change /veh RHOB (11743442_s_at) / RFU RGS16 (11720943_a_at) / Fold change /veh RGS16 (11720943_a_at) / RFU RGS16 (11720944_at) / Fold change /veh RGS16 (11720944_at) / RFU, VPS4B / Fold change vs veh, VPS4B / RFU, CREB1 / Fold change vs veh, CREB1 / RFU, DNAJC13 / Fold change vs veh, DNAJC13 / RFU, GNAQ / Fold change vs veh, GNAQ / RFU, CDK5R1 / Fold change vs veh, CDK5R1 / RFU, ZRANB3 / Fold change vs veh, ZRANB3 / RFU, CUL4A / Fold change vs veh, CUL4A / RFU, CCNY / Fold change vs veh, CCNY / RFU, UFL1 / Fold change vs veh, UFL1 / RFU, COG3 / Fold change vs veh, COG3 / RFU, DIAPH2 / Fold change vs veh, DIAPH2 / RFU, SKA2 / Fold change vs veh, SKA2 / RFU, AFF3 / Fold change vs veh, AFF3 / RFU, LMF1 / Fold change vs veh, LMF1 / RFU, IPO11 / Fold change vs veh, IPO11 / RFU, DFFB / Fold change vs veh, DFFB / RFU, FOXP1 / Fold change vs veh, FOXP1 / RFU, CARD8 / Fold change vs veh, CARD8 / RFU, STRN3 / Fold change vs veh, STRN3 / RFU, ADK / Fold change vs veh, ADK / RFU, RASSF2 / Fold change vs veh, RASSF2 / RFU, WIPF1 / Fold change vs veh, WIPF1 / RFU, LARP1B / Fold change vs veh, LARP1B / RFU, RASA1 / Fold change vs veh, RASA1 / RFU, RB1 / Fold change vs veh, RB1 / RFU, PPFIA1 / Fold change vs veh, PPFIA1 / RFU, MAT2A / Fold change vs veh, MAT2A / RFU, CCT5 / Fold change vs veh, CCT5 / RFU, WDR92 / Fold change vs veh, WDR92 / RFU, CUX1 / Fold change vs veh, CUX1 / RFU, TTC7A / Fold change vs veh, TTC7A / RFU, TMEM135 / Fold change vs veh, TMEM135 / RFU, DEPTOR / Fold change vs veh, DEPTOR / RFU, CPM / Fold change vs veh, CPM / RFU, DNAJB6 / Fold change vs veh, DNAJB6 / RFU, CACNA2D3 / Fold change vs veh, CACNA2D3 / RFU, DTX4 / Fold change vs veh, DTX4 / RFU, TFCP2 / Fold change vs veh, TFCP2 / RFU, GMCL1 /// GMCL1P1 / Fold change vs veh, GMCL1 /// GMCL1P1 / RFU, AEBP2 / Fold change vs veh, AEBP2 / RFU, SNHG1 /// SNORD22 /// SNORD25 /// SNORD26 /// SNORD27 /// SNORD28 /// SNORD29 /// SNORD31 / Fold change vs veh, SNHG1 /// SNORD22 /// SNORD25 /// SNORD26 /// SNORD27 /// SNORD28 /// SNORD29 /// SNORD31 / Fold change (Aza/veh), C12orf56 (ProbeSet 11735607_a_at) / Fold change (ACY-1035/veh), C12orf56 (ProbeSet 11735607_a_at) / Fold change (Aza/veh), FGFR1OP (ProbeSet 11751329_s_at) / Fold change (ACY-1035/veh), FGFR1OP (ProbeSet 11751329_s_at) / Fold change (Aza/veh), VPS36 (ProbeSet 11739960_a_at) / Fold change (ACY-1035/veh), VPS36 (ProbeSet 11739960_a_at) / RFU SYPL1 (11715823_x_at) / Fold change /veh SYPL1 (11715823_x_at) / RFU IGFBP7 (11715501_s_at) / Fold change /veh IGFBP7 (11715501_s_at) / RFU REEP3 (11722064_at) / Fold change /veh REEP3 (11722064_at) / RFU IGLL1 (11728026_x_at) / Fold change /veh IGLL1 (11728026_x_at): dose or concentration left out as unconfirmed
Conditions: ProbeSet 11738335_x_at; LIST B

With `Nc1ncn([C@@H]2O[C@H](CO)[C@@H](O)[C@H]2O)c(=O)n1` [azacitidine] the “Fold change vs veh, TP53” value was 0.89.

Source: publication PMC5218480 (PLoS ONE, 2017)
